We go through 26 compounds from US9145392B2, “Imidazole amines as modulators of kinase activity” (Merck Patent GmbH, priority 2011, dated 2015).

Structures are written as SMILES.

One assay has as its target His-AKT (Full Length) (Homo sapiens (Human), UniProt P31749). Nature of the assay: AKT enzyme assay. The assay is classed as biochemical. The following applies: read-out: IC50 AKT.
In the next assay the target is P70S6K (T412E mutant) (Homo sapiens (Human), UniProt P23443, T412E). Nature of the assay: P70S6K enzyme assay. Format: biochemical. The following applies: read-out: IC50 p70S6K. In short, it runs like this: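 Phosphorylated product and substrate peptide separated by microfluidic capillary electrophoresis (Caliper LabChip 3000), product peaks resolving before substrate.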
P70S6K (T412E mutant), sequence (P23443 whole entry T412E): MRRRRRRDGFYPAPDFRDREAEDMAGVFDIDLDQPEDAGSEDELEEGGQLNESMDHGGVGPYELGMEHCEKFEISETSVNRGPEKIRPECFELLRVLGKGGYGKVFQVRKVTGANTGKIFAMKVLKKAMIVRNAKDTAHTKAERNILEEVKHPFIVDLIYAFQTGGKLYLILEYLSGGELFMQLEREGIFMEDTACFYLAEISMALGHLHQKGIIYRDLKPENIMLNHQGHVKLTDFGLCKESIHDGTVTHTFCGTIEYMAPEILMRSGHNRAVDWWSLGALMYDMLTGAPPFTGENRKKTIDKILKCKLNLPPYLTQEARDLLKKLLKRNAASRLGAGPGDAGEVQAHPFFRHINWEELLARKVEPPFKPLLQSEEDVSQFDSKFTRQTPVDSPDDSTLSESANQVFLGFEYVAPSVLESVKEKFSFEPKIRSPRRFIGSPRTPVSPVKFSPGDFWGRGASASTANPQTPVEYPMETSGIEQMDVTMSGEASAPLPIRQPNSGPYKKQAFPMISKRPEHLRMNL

His-AKT (Full Length), sequence (P31749 whole entry): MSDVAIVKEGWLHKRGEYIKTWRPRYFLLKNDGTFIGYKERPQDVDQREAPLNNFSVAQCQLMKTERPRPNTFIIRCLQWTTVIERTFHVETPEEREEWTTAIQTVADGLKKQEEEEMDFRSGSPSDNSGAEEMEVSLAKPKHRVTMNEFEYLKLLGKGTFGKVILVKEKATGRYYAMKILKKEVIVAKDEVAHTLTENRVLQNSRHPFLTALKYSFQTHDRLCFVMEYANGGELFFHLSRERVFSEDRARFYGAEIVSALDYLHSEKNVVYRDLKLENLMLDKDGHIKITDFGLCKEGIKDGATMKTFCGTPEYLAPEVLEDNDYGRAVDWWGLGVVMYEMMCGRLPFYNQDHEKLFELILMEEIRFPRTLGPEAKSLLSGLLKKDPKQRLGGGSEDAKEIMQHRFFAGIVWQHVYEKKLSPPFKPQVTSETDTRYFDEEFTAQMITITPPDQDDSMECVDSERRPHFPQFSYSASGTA

Usually IC50 stands for the concentration at which inhibition is half-maximal. Take `NC(=O)c1c(N)ncnc1N1CCC(c2nc(-c3ccoc3)cn2CCN2CCC2)CC1` [Compound 133, 4-amino-6-(4-(1-(2-(azetidin-1-yl)ethyl)-4-(furan-3-yl)-1H-imidazol-2-yl)piperidin-1-yl)pyrimidine-5-carboxamide]: the IC50 on His-AKT (Full Length) was found to be 3600 nM; on P70S6K (T412E mutant), 46 nM.
In the same order, the values of `NC(=O)c1c(N)ncnc1N1CCC(c2nc(-c3ccsc3)cn2CCN2CCC2)CC1` [Compound 134, 4-amino-6-(4-(1-(2-(azetidin-1-yl)ethyl)-4-(thiophen-3-yl)-1H-imidazol-2-yl)piperidin-1-yl)pyrimidine-5-carboxamide] are 1900 nM and 6 nM.
In the same order, the values of `NC(=O)c1c(N)ncnc1N1CCC(c2nc(-c3cnoc3)cn2CCN2CCC2)CC1` [Compound 135, 4-amino-6-(4-(1-(2-(azetidin-1-yl)ethyl)-4-(isoxazol-4-yl)-1H-imidazol-2-yl)piperidin-1-yl)pyrimidine-5-carboxamide] are 760 nM and 860 nM.
Taken in the same sequence, the figures for `NC(=O)c1c(N)ncnc1N1CCC(c2nc(-c3ccccc3)cn2CCN2CCC2)CC1` [Compound 136, 4-amino-6-(4-(1-(2-(azetidin-1-yl)ethyl)-4-phenyl-1H-imidazol-2-yl)piperidin-1-yl)pyrimidine-5-carboxamide] were 1900 nM and 8.4 nM.
For the compound `N#Cc1c(N)ncnc1N1CCC(c2nc(-c3ccc(F)c(C(F)(F)F)c3)cn2C2CCNC2)CC1` (stereo not shown) [Compound 137, 4-amino-6-(4-(4-(4-fluoro-3-(trifluoromethyl)phenyl)-1-(pyrrolidin-3-yl)-1H-imidazol-2-yl)piperidin-1-yl)pyrimidine-5-carbonitrile], the IC50 on His-AKT (Full Length) amounted to 11 nM; on P70S6K (T412E mutant) it was 2.7 nM.
Taken in the same sequence, the figures for `NC(=O)c1c(N)ncnc1N1CCC(c2nc(-c3ccc(F)c(C(F)(F)F)c3)cn2C2CCNC2)CC1` (stereo not shown) [Compound 138, 4-amino-6-(4-(4-(4-fluoro-3-(trifluoromethyl)phenyl)-1-(pyrrolidin-3-yl)-1H-imidazol-2-yl)piperidin-1-yl)pyrimidine-5-carboxamide] were 100 nM and 1.7 nM.
In the same order, the values of `CCc1c(N)ncnc1N1CCC(c2nc(-c3ccc(F)c(C(F)(F)F)c3)cn2CCN)CC1` [Compound 139, 6-(4-(1-(2-aminoethyl)-4-(4-fluoro-3-(trifluoromethyl)phenyl)-1H-imidazol-2-yl)piperidin-1-yl)-5-ethylpyrimidin-4-amine] are 6.6 nM and 1.1 nM.
As to `NC(=O)c1c(N)ncnc1N1CCC(c2nc(-c3ccc(F)c(C(F)(F)F)c3)cn2CC2CNC2)CC1` [Compound 140, 4-amino-6-(4-(1-(azetidin-3-ylmethyl)-4-(4-fluoro-3-(trifluoromethyl)phenyl)-1H-imidazol-2-yl)piperidin-1-yl)pyrimidine-5-carboxamide], the IC50 at His-AKT (Full Length) is 27 nM; at P70S6K (T412E mutant) it was 2.2 nM.
`N#Cc1c(N)ncnc1N1CCC(c2nc(-c3ccc(F)c(C(F)(F)F)c3)cn2CC2CNC2)CC1` [Compound 141, 4-amino-6-(4-(1-(azetidin-3-ylmethyl)-4-(4-fluoro-3-(trifluoromethyl)phenyl)-1H-imidazol-2-yl)piperidin-1-yl)pyrimidine-5-carbonitrile]: the IC50 is 64.5 nM on His-AKT (Full Length) and 13 nM at P70S6K (T412E mutant).
In the same order, the values of `N#Cc1c(N)ncnc1N1CCC(c2nc(-c3ccc(F)c(C(F)(F)F)c3)cn2C2CNC2)CC1` [Compound 142, 4-amino-6-(4-(1-(azetidin-3-yl)-4-(4-fluoro-3-(trifluoromethyl)phenyl)-1H-imidazol-2-yl)piperidin-1-yl)pyrimidine-5-carbonitrile] are 240 nM and 6.4 nM.
Consider `NC(=O)c1c(N)ncnc1N1CCC(c2nc(-c3ccc(F)c(C(F)(F)F)c3)cn2C2CNC2)CC1` [Compound 143, 4-amino-6-(4-(1-(azetidin-3-yl)-4-(4-fluoro-3-(trifluoromethyl)phenyl)-1H-imidazol-2-yl)piperidin-1-yl)pyrimidine-5-carboxamide], for which the half-inhibitory concentration (IC50) at His-AKT (Full Length) amounted to 670 nM; on P70S6K (T412E mutant) it was 16 nM.
Turning to `Nc1ncnc(N2CCC(c3nc(-c4ccnc(C(F)(F)F)c4)cn3CCN3CCC3)CC2)c1Cl` [Compound 144, 6-(4-(1-(2-(azetidin-1-yl)ethyl)-4-(2-(trifluoromethyl)pyridin-4-yl)-1H-imidazol-2-yl)piperidin-1-yl)-5-chloropyrimidin-4-amine], the IC50 was 2.5 nM at His-AKT (Full Length) and 1.1 nM on P70S6K (T412E mutant).
With `NC(=O)c1c(N)ncnc1N1CCC(c2nc(-c3cn[nH]c3)cn2CCN2CCC2)CC1` [Compound 145, 4-amino-6-(4-(1-(2-(azetidin-1-yl)ethyl)-4-(1H-pyrazol-4-yl)-1H-imidazol-2-yl)piperidin-1-yl)pyrimidine-5-carboxamide], the results for the IC50 at His-AKT (Full Length) and on P70S6K (T412E mutant) were 2200 nM and 53 nM, respectively.
Taken in the same sequence, the figures for `N#Cc1c(N)ncnc1N1CCC(c2nc(-c3ccc(F)c(C(F)(F)F)c3)cn2C[C@@H]2CCN2)CC1` [Compound 146, (S)-4-amino-6-(4-(1-(azetidin-2-ylmethyl)-4-(4-fluoro-3-(trifluoromethyl)phenyl)-1H-imidazol-2-yl)piperidin-1-yl)pyrimidine-5-carbonitrile] were 31 nM and 3.8 nM.
With `N#Cc1c(N)ncnc1N1CCC(c2nc(-c3ccc(F)c(C(F)(F)F)c3)cn2CC2CCCN2)CC1` (stereo not shown) [Compound 147, 4-amino-6-(4-(4-(4-fluoro-3-(trifluoromethyl)phenyl)-1-(pyrrolidin-2-ylmethyl)-1H-imidazol-2-yl)piperidin-1-yl)pyrimidine-5-carbonitrile], the half-inhibitory concentration (IC50) is 2.9 nM at His-AKT (Full Length) and 1.8 nM at P70S6K (T412E mutant).
Take `Nc1ncnc(N2CCC(c3nc(-c4ccc(F)c(C(F)(F)F)c4)cn3CC3CNC3)CC2)c1Cl` [Compound 148, 6-(4-(1-(azetidin-3-ylmethyl)-4-(4-fluoro-3-(trifluoromethyl)phenyl)-1H-imidazol-2-yl)piperidin-1-yl)-5-chloropyrimidin-4-amine]: the values for the concentration for half-maximal inhibition (IC50) on His-AKT (Full Length) and at P70S6K (T412E mutant) were 16.5 nM and 4.8 nM, respectively.
Taken in the same sequence, the figures for `Nc1ncnc(N2CCC(c3nc(-c4ccc(F)c(C(F)(F)F)c4)cn3C[C@@H]3CCN3)CC2)c1Cl` [Compound 149, (S)-6-(4-(1-(azetidin-2-ylmethyl)-4-(4-fluoro-3-(trifluoromethyl)phenyl)-1H-imidazol-2-yl)piperidin-1-yl)-5-chloropyrimidin-4-amine] were 38 nM and 4.8 nM.
With `NC(=O)c1c(N)ncnc1N1CCC(c2nc(-c3ccc(F)c(C(F)(F)F)c3)cn2C[C@@H]2CCN2)CC1` [Compound 150, (S)-4-amino-6-(4-(1-(azetidin-2-ylmethyl)-4-(4-fluoro-3-(trifluoromethyl)phenyl)-1H-imidazol-2-yl)piperidin-1-yl)pyrimidine-5-carboxamide], the IC50 at His-AKT (Full Length) was determined as 220 nM; on P70S6K (T412E mutant) it was 10 nM.
As to `CCc1c(N)ncnc1N1CCC(c2nc(-c3ccc(F)c(C(F)(F)F)c3)cn2CC2CNC2)CC1` [Compound 151, 6-(4-(1-(azetidin-3-ylmethyl)-4-(4-fluoro-3-(trifluoromethyl)phenyl)-1H-imidazol-2-yl)piperidin-1-yl)-5-ethylpyrimidin-4-amine], the IC50 turned out to be 19 nM at His-AKT (Full Length) and 2.2 nM at P70S6K (T412E mutant).
As for `CCc1c(N)ncnc1N1CCC(c2nc(-c3ccc(F)c(C(F)(F)F)c3)cn2C[C@@H]2CCN2)CC1` [Compound 152, (S)-6-(4-(1-(azetidin-2-ylmethyl)-4-(4-fluoro-3-(trifluoromethyl)phenyl)-1H-imidazol-2-yl)piperidin-1-yl)-5-ethylpyrimidin-4-amine], the IC50 at His-AKT (Full Length) amounted to 280 nM; on P70S6K (T412E mutant), 5.2 nM.
In the case of `NC(=O)c1c(N)ncnc1N1CCC(c2nc(-c3ccc(F)c(C(F)(F)F)c3)cn2CC2CCCN2)CC1` (stereo not shown) [Compound 153, 4-amino-6-(4-(4-(4-fluoro-3-(trifluoromethyl)phenyl)-1-(pyrrolidin-2-ylmethyl)-1H-imidazol-2-yl)piperidin-1-yl)pyrimidine-5-carboxamide], the values for the IC50 at His-AKT (Full Length) and on P70S6K (T412E mutant) were 220 nM and 10 nM, respectively.
For `NC(=O)c1c(N)ncnc1N1CCC(c2nc(-c3ccc(F)c(C(F)(F)F)c3)cn2C2CCNCC2)CC1` [Compound 154, 4-amino-6-(4-(4-(4-fluoro-3-(trifluoromethyl)phenyl)-1-(piperidin-4-yl)-1H-imidazol-2-yl)piperidin-1-yl)pyrimidine-5-carboxamide], the IC50 at His-AKT (Full Length) worked out at 480 nM; at P70S6K (T412E mutant), 3 nM.
In the same order, the values of `N#Cc1c(N)ncnc1N1CCC(c2nc(-c3ccc(F)c(C(F)(F)F)c3)cn2C2CCNCC2)CC1` [Compound 155, 4-amino-6-(4-(4-(4-fluoro-3-(trifluoromethyl)phenyl)-1-(piperidin-4-yl)-1H-imidazol-2-yl)piperidin-1-yl)pyrimidine-5-carbonitrile] are 160 nM and 0.9 nM.
As for `CN1CC(Cn2cc(-c3ccc(F)c(C(F)(F)F)c3)nc2C2CCN(c3ncnc(N)c3C(N)=O)CC2)C1` [Compound 156, 4-amino-6-(4-(4-(4-fluoro-3-(trifluoromethyl)phenyl)-1-((1-methylazetidin-3-yl)methyl)-1H-imidazol-2-yl)piperidin-1-yl)pyrimidine-5-carboxamide], the IC50 at His-AKT (Full Length) came to 81 nM; on P70S6K (T412E mutant), 4.9 nM.
Taken in the same sequence, the figures for `CCc1c(N)ncnc1N1CCC(c2nc(-c3ccc(F)c(C(F)(F)F)c3)cn2C2CCNCC2)CC1` [Compound 157, 5-ethyl-6-(4-(4-(4-fluoro-3-(trifluoromethyl)phenyl)-1-(piperidin-4-yl)-1H-imidazol-2-yl)piperidin-1-yl)pyrimidin-4-amine] were 190 nM and 2 nM.
Taken in the same sequence, the figures for `N#Cc1c(N)ncnc1N1CCC(c2nc(-c3ccc(F)c(C(F)(F)F)c3)cn2CCN)CC1` [Compound 158, 4-amino-6-(4-(1-(2-aminoethyl)-4-(4-fluoro-3-(trifluoromethyl)phenyl)-1H-imidazol-2-yl)piperidin-1-yl)pyrimidine-5-carbonitrile] were 3.6 nM and 1.5 nM.
